pEC50: −log10 of the molar value. Activity calls are given as the source filed them.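 How the source made its calls: active means EC50 no more than a set limit of log units above the highest dose; inactive means the rest.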
These compounds were tested against S. pyogenes SKKanGAS, kanamycin survival, BacTiterGlo, 6 h (assay: SKKanGAS survival reduction under kanamycin, dose response, streptokinase promoter inhibitor project, SKKanGAS strain, luminescence, dose confirmation (AID 1902);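 further: lower survival reflects blocked streptokinase promoter driving kanamycin resistance gene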).
With `Cc1oc(-c2cc(Cl)cc(Cl)c2)cc1C(=O)NCCc1ccccc1` the pEC50 was 4.93.
Compound `Fc1ccc(Cn2cccc2C2=NC(c3ccccc3)CO2)cc1` (stereo unspecified) has a pEC50 of 5.13.
For `Cc1ccccc1NC(=O)C(=O)NC(C)CCc1ccccc1` (stereo unspecified), the EC50 was > 15 µM (inactive).
In the case of `COc1ccc2cc(C(=O)C3CCCN(Cc4cccc(C)n4)C3)ccc2c1` (stereo unspecified), the pEC50 was 5.74.
Work on `Cn1c(O)c(N=NC(=S)Nc2ccccc2F)c2cc(S(=O)(=O)N3CCOCC3)ccc21` yielded a pEC50 of 5.29.
Compound `CCn1c(NC(=O)c2cccc(Cn3cc(Cl)cn3)c2)nc2ccccc21` has a pEC50 of 5.99.
Work on `O=C(NNC(=S)NC(=O)c1cccs1)c1ccc(NC(=O)c2ccccc2)cc1` yielded a pEC50 of 6.25.
Compound `O=C(N/N=C/c1cc([N+](=O)[O-])ccc1O)/C(=C\c1cccs1)NC(=O)c1ccccc1` has a pEC50 of 5.74.
`CN1CCN(C2=Cc3ccc(Cl)cc3Sc3ccc(F)cc32)CC1` showed a pEC50 of 5.34.
With `CCc1nn(CCCC(=O)NCc2ccccc2Br)c(=O)c2cc3occc3n12` the pEC50 was 5.59.
Work on `CC(C)C(=O)NC(c1ccco1)c1ccc2cccnc2c1O` (stereo unspecified) yielded a pEC50 of 5.61.
Compound `C/C(=N\NC(=O)COc1ccccc1-c1ccccc1)c1ccccn1` has a pEC50 of 6.18.
`COc1ccc2c(c1)c(CC(=O)Nc1cccc(S(N)(=O)=O)c1)c(C)n2C(=O)c1ccc(Cl)cc1` gave a pEC50 of 5.48.
For `CC(C)(C)[C@H]1CCC(=O)N([C@H](CSc2ccccc2)Cc2ccccc2)CC1`, the pEC50 was 5.45.
`CCC(CC)c1nnc(NC(=O)c2ccc3ccccc3n2)s1` showed a pEC50 of 6.14.
`CC(=O)c1c(C)[nH]c(C(=O)Nc2nc(-c3ccc(-c4ccccc4)cc3)cs2)c1C` was tested, and the pEC50 was 5.38.
In the case of `Oc1ccc(N=Nc2ccc3c(c2)OCCO3)c2ncccc12`, the pEC50 was 6.38.
`Cc1ccc(Cn2ccc(=O)c(OCc3c(Cl)cccc3Cl)c2C)cc1` showed a pEC50 of 5.23.
For `CCCCn1c(=O)c(C(=O)NCc2ccccc2)c(O)c2ccccc21`, the pEC50 was 5.16.
For `CN(C(=O)Cc1c(C(=O)O)n(C)c2ccccc12)c1ccc(F)cc1`, the EC50 was > 15 µM (inactive).
`O=[N+]([O-])c1ccc(-c2nc(-c3cccs3)c(-c3cccs3)[nH]2)cc1` was tested, and the pEC50 was 5.02.
`O=c1cc(-c2ccccc2Cl)oc2ccc([N+](=O)[O-])c(O)c12` gave a pEC50 of 5.49.
`O=C(Nc1nc2ccc(SC(F)F)cc2s1)c1ccc(NS(=O)(=O)c2ccc(F)c(F)c2)cc1` gave a pEC50 of 5.72.
With `CCN1CCN(Cc2ccc(NC(=O)c3cc(NC(=O)c4cc(-c5ccc(OC)cc5)n[nH]4)cc(OC)c3)cc2C(F)(F)F)CC1` the pEC50 was 5.37.
In the case of `CCOC(=O)C1=C(N)c2ccccc2CC1C1CCCC1` (stereo unspecified), the pEC50 was 5.49.
`O=C(O)CN1C(=O)/C(=C\c2cc(Br)ccc2OCc2ccccc2Cl)SC1=S` showed a pEC50 of 5.68.
In the case of `Cc1ccc(S(=O)(=O)N2CCCCC2)cc1NC(=O)CN1C(=O)CN(C)C1=O`, the EC50 was > 15 µM (inactive).
`Cc1ccc(N=N/C(=C\O)C(=O)c2ccc(Cl)cc2)cc1` gave a pEC50 of 5.07.
In the case of `COc1ccccc1N1CC(C(=O)Nc2nnc(SCC(=O)N3CCCC3)s2)CC1=O` (stereo unspecified), the EC50 was > 15 µM (inactive).
In the case of `C[n+]1c(-c2ccccc2)c2cc(N)ccc2c2ccc(N)cc21`, the pEC50 was 5.81.
With `COc1ccc2oc(C(=O)Nc3nc4ccccc4[nH]3)c(C)c2c1` the pEC50 was 5.25.
`CSCC[C@H](NC(=O)c1nn(C)c(=O)c2ccccc12)c1nc2ccccc2[nH]1` showed a pEC50 of 5.54.
For `Cc1onc(-c2ccccc2)c1C(=O)NNC(=S)NC(=O)/C=C/c1cccs1`, the pEC50 was 6.08.
In the case of `CCCCCCCCCCCCCCCC[N+](C)(C)C`, the pEC50 was 5.52.
`Cc1cc(Cl)c2oc(C(=O)N3CCC(O)(c4ccccc4)CC3)c(C)c2c1` showed a pEC50 of 5.14.
For `CC1C(=O)C(C)C(c2cc(Cl)ccc2O)NC1c1cc(Cl)ccc1O` (stereo unspecified), the pEC50 was 5.64.
For `CCC(C)Sc1cccc(-c2nc3ccc(C)cn3c2NCc2ccccc2)c1` (stereo unspecified), the pEC50 was 5.49.
`Cc1cccc(C)c1OC1(c2ccccc2)OC(=O)c2ccccc21` (stereo unspecified) was tested, and the pEC50 was 5.55.
`c1ccc2c(-c3c[nH]c4ccccc34)c3ccccc3nc2c1` showed a pEC50 of 4.96.
`CC1CCN(c2nc(N3CCCCC3)nc(N3CCCCC3)n2)CC1` was tested, and the pEC50 was 5.52.
`CCOc1ccc(NC(=O)c2c(NC(=O)CNCCN3CCOCC3)sc3c2CCC3)cc1` showed a pEC50 of 5.96.
`Cn1c(=O)c(C(=O)NNC(=O)c2ccccc2F)c(O)c2ccccc21` gave a pEC50 of 5.37.
For `O=C(NCc1ccco1)c1cc2ccc(O)cc2oc1=O`, the pEC50 was 5.23.
With `COc1ccccc1-n1c(SCC(=O)Nc2ccc(Br)cc2)nc(O)cc1=O` the pEC50 was 4.99.
In the case of `Cc1nn(-c2ccccc2)c(C)c1/C=N/NC(=O)c1cc(C23CC4CC(CC(C4)C2)C3)[nH]n1`, the pEC50 was 5.16.
For `CCOc1ccc(C(=O)NC(=S)Nc2ccc(NC(=O)CC)cc2)cc1[N+](=O)[O-]`, the pEC50 was 5.36.
With `COc1ccc(-c2cc(C3CCN(c4ncccc4[N+](=O)[O-])CC3)[nH]n2)cc1` the pEC50 was 5.30.
With `CCCCn1c(O)c(N=NC(=O)c2ccccc2NS(=O)(=O)c2cccs2)c2ccccc21` the pEC50 was 5.30.
Compound `O=C(CSc1nc2c(cnn2-c2ccccc2)c(=O)[nH]1)N1N=C(c2cccs2)CC1c1ccc(F)cc1` (stereo unspecified) has a pEC50 of 5.79.
With `CCOc1ccc2c(c1)C(=NNC(=O)c1ccncc1)c1cc(OCC)ccc1-2` the pEC50 was 5.80.
`O=C(O)c1ccc(N/N=C/c2ccc(-c3ccc(Cl)cc3Cl)o2)cc1` was tested, and the pEC50 was 5.71.
`O=C1NC[C@@H](Cc2cccc3ccccc23)N(CCCCC2CCCCC2)C1=O` gave a pEC50 of 5.41.
`CC(C)(C)NS(=O)(=O)c1ccc(NS(=O)(=O)Cc2ccccc2)cc1` was tested, and the EC50 was > 15 µM (inactive).
`Nc1c(S(=O)(=O)c2cccs2)c2nc3ccccc3nc2n1/N=C/c1cccc(O)c1` gave a pEC50 of 5.34.
Compound `Cc1cccc(NC(=O)c2nc[nH]c2C(=O)N[C@@H](CC(C)C)C(=O)OCc2ccccc2)c1` has a pEC50 of 5.78.
`Cc1cccnc1Nc1nc(-c2ccccn2)cs1` gave a pEC50 of 6.15.
Compound `O=C(Nc1nnc(C2COc3ccccc3O2)o1)c1ccc(F)cc1` (stereo unspecified) has a pEC50 of 5.83.
With `O=C(Nc1nnc(-c2ccco2)o1)c1ccc(Cl)cc1` the pEC50 was 5.92.
For `Cc1cccc(NC2=Nc3ccccc3N3C2=Nc2c(c(C)nn2-c2ccccc2)C3c2ccc(O)c(O)c2)c1` (stereo unspecified), the pEC50 was 5.34.
In the case of `CCC1CCCCN1c1cc(C)nc2cc(-c3cccc(C)c3)nn12` (stereo unspecified), the pEC50 was 5.18.
Work on `COc1cc([N+](=O)[O-])cc(/C=N/NC(=O)c2cncc(Br)c2)c1O` yielded a pEC50 of 6.01.
With `Cc1ccccc1CN1CCCN(Cc2ccc(Cl)cc2)S1(=O)=O` the pEC50 was 5.39.
Compound `COC(=O)c1cc(-c2cccc(OC)c2)c2c(=O)[nH]c(=O)n(C)c2n1` has a pEC50 of 5.37.
With `COc1ccc(/C=N/n2c(C)nc3c([nH]c4ccccc43)c2=O)cc1CN1CCCC(C)(C)C1` the pEC50 was 5.10.
`Cc1ccc(/C(O)=C/C(=O)C(=O)NC23CC4CC(CC(C4)C2)C3)cc1` showed a pEC50 of 5.69.
In the case of `Cc1cc(/C=C2\SC(=O)NC2=O)c(C)n1-c1ccc(N2CCOCC2)cc1`, the pEC50 was 5.80.
Compound `COc1cnc(-c2ccccn2)nc1N(C)c1ccccc1` has a pEC50 of 5.17.
`COc1ccc(/C=C/c2ccc3c(Br)ccc(O)c3n2)cc1` showed a pEC50 of 6.11.
For `COc1ccccc1CCNC(=O)C(=O)c1cn(CC(=O)N2CCCC2)c2ccccc12`, the EC50 was > 15 µM (inactive).
`Cc1cc(C)c[n+](C2=C([O-])c3ccccc3C(=O)/C2=N\S(=O)(=O)c2cccs2)c1` was tested, and the pEC50 was 5.73.
`CN1CCN(C(c2ccc(C(F)(F)F)cc2)c2cc(Cl)c3cccnc3c2O)CC1` (stereo unspecified) was tested, and the pEC50 was 6.17.
With `Cc1[nH]cnc1C(=O)N/N=C/c1ccc([N+](=O)[O-])s1` the pEC50 was 5.43.
For `O=C(Cn1nnc(-c2ccccc2)n1)N/N=C/c1cc([N+](=O)[O-])ccc1O`, the pEC50 was 6.12.
`COCc1cc(Sc2c(Cl)cccc2Cl)nc(-c2ccccc2)n1` gave a pEC50 of 4.98.
In the case of `C/C(=N/NC(=O)c1cc2ccccc2cc1O)C1C(=O)c2ccccc2C1=O`, the pEC50 was 5.80.
Compound `COc1ccc(OC)c(C2C=C(C34CC5CC(CC(C5)C3)C4)NC(=S)N2)c1` (stereo unspecified) has a pEC50 of 5.53.
